From PMC5360941, “Simultaneous Determination and Pharmacokinetic Study of Quercetin, Luteolin, and Apigenin in Rat Plasma after Oral Administration of Matricaria chamomilla L. Extract by HPLC-UV” (Evidence-based Complementary and Alternative Medicine : eCAM, 2017)

Assays:
[1] = Pharmacokinetic study in rats after oral administration of M. chamomilla extract (HPLC-UV of plasma); assay type: in vivo, Male Sprague-Dawley rats; details: oral M. chamomilla extract (quercetin 8.51 mg/kg, luteolin 56.49 mg/kg, apigenin 13.82 mg/kg), mean ± SD; for AUC(0-inf) / AUC(0-t) / Cmax / Tmax / half-life: male, Sprague-Dawley, rat; for AUC(0-inf) / T1/2, elimination half-life: n = 6; for AUC(0-t): n = 6, read-out: AUC0–12; for Cmax: n = 6, read-out: Cmax, maximum plasma concentration; for Tmax: noncompartmental, n = 6, read-out: Tmax, time to reach the maximum plasma concentration; for half-life: po, n = 6, read-out: T1/2, elimination half-life (converted)
Protocol: All analyses were performed on a Shimadzu HPLC system, equipped with LC-20AT pump, a Shimadzu SCL-10A system controller, and a SPD-20A DAD-UV detector. The HPLC analysis was performed on an Agilent Eclipse XDB-C18 column (250 mm × 4.6 mm, 5 μm) with a mobile phase consisting of methanol and 0.2% phosphoric acid (50 : 50, v/v) with a constant rate of 1.0 ml/min. The injection volume was 10 μl and the column temperature was set at 25°C. The wavelength was set at 350 nm for quantitative analysis; the proportion of components in the mobile phase was optimized to obtain a well separation of quercetin, luteolin, apigenin, and kaempferol (IS).
An aliquot of 100 μL rat plasma was transferred to a 1.5 mL plastic tube to which was added 10 μL IS (22.52 μg/ml) for processing. After being vortex-mixed for 30 seconds, the plasma sample was then extracted with 800 μl of ethyl acetate and centrifuged at 18000g for 10 min, where ethyl acetate acted as a deproteinization-extraction agent. The procedure of extraction was performed two times. The organic layer was dried at 40°C under nitrogen stream. The residue was reconstituted in 100 μL of methanol solution, vortexed for 1 min, and centrifuged at 18000g for 10 min. The supernatant transferred to a glass insert, and 10 μL of the sample was injected into the HPLC column for analysis. The method of sample preparation was also applied for determination of accuracy, precision, and recovery.
Male Sprague-Dawley rats (body weight 160 ± 20 g) were purchased from Beijing Vital River Laboratory Animal Technology (Beijing, China). Rats were housed in a temperature- and humidity-controlled environment (25°C, 65% RH) and maintained on a 12-hour light/dark cycle for 3 days with free access to food and water before starting the experiment. The animal experiments were performed in accordance with the principles of the International Guide for the Care and Use of Laboratory Animals and were approved by the Committee on Animal Care and Usage of the Beijing University of Chinese Medicine (number SYXK 2011-0024).
The extracts of M. chamomilla (quercetin was 8.51 mg/kg, luteolin was 56.49 mg/kg, and apigenin was 13.82 mg/kg) freshly prepared in 0.5% CMC-Na solution were orally administered to six rats. Blood samples (0.5 mL) were collected from the ocular fundus veins of rats before administration and after 10, 20, 30, and 45 min and 1, 1.5, 2, 4, 6, 8, and 12 h after oral administration of M. chamomilla extract. The plasma was immediately centrifuged at 3200g for 10 min to separate out plasma and then stored frozen at −20°C until analysis.
The pharmacokinetic parameters of quercetin, luteolin, and apigenin were calculated by Kinetica 4.4 software (Thermo Scientific, USA). Noncompartmental analysis was used to determine standard pharmacokinetic parameters of analytes. All the results were expressed as means ± standard deviation (SD) of six replicates.

[2] = Stability of the analytes in rat plasma (QC samples under different storage conditions); assay type: in vitro ADME; details: for Stability in plasma (in words): plasma stored at 20°C for 24 h, −20°C for 30 days, and after three freeze-thaw cycles, low, medium, high concentrations, stable = 85–115% of initial; for Freeze-thaw stability, found conc. / Short-term stability, found conc. / Long-term stability, found conc.: rat plasma, n = 6; for Freeze-thaw stability, found conc.: 3 freeze-thaw cycles; for Short-term stability, found conc.: 24 h at room temperature; for Long-term stability, found conc.: 30 days at −20°C
Protocol: QC samples were prepared in the same way as the calibration samples, representing three different level concentrations (low, medium, and high) of quercetin in plasma at 0.57, 2.84, and 9.09 μg/ml, luteolin at 0.56, 2.80, and 8.96 μg/ml, and apigenin at 0.53, 2.65, and 8.48 μg/ml, respectively. The stability of the analytes in plasma was investigated by determining QC plasma samples of the three concentration levels under different storage conditions: 24 h at room temperature, three freeze (−20°C) and thaw (room temperature) cycles, stored at −20°C for 30 days. They were considered stable when 85–115% of the initial concentrations were got. All stability testing QC samples were determined by using the calibration curve of freshly prepared standard samples.

[3] = high QC (spiked 9.09 quercetin, 8.96 luteolin, 8.48 apigenin μg/ml)
[4] = low QC (spiked 0.57 quercetin, 0.56 luteolin, 0.53 apigenin μg/ml)
[5] = medium QC (spiked 2.84 quercetin, 2.80 luteolin, 2.65 apigenin μg/ml)

SMILES	AUC(0-inf) [1]	AUC(0-t) [1]	Cmax [1]	Tmax [1]	half-life [1]	Stability in plasma (in words) [2]	Freeze-thaw stability, found conc. [2, 3]	Freeze-thaw stability, found conc. [2, 4]	Freeze-thaw stability, found conc. [2, 5]	Short-term stability, found conc. [2, 3]	Short-term stability, found conc. [2, 4]	Short-term stability, found conc. [2, 5]	Long-term stability, found conc. [2, 3]	Long-term stability, found conc. [2, 4]	Long-term stability, found conc. [2, 5]	T1/2, elimination half-life [1]
O=c1c(O)c(-c2ccc(O)c(O)c2)oc2cc(O)cc(O)c12 [Quercetin, quercetin]	3880 ± 1000 ng·h/mL	1790 ± 290 ng·h/mL	290 ± 60 ng/mL	~0.79 h	~13.6 h	stable	9.24 ± 0.55 µg/mL	0.63 ± 0.01 µg/mL	3.09 ± 0.09 µg/mL	9.15 ± 0.69 µg/mL	0.63 ± 0.01 µg/mL	3.09 ± 0.18 µg/mL	9.59 ± 0.53 µg/mL	0.62 ± 0.03 µg/mL	3.10 ± 0.16 µg/mL	–
O=c1cc(-c2ccc(O)c(O)c2)oc2cc(O)cc(O)c12 [Luteolin, luteolin]	19900 ± 5060 ng·h/mL	16000 ± 2380 ng·h/mL	3040 ± 600 ng/mL	~0.42 h	~4.43 h	stable	8.56 ± 0.54 µg/mL	0.62 ± 0.02 µg/mL	2.91 ± 0.15 µg/mL	8.96 ± 0.76 µg/mL	0.62 ± 0.01 µg/mL	2.94 ± 0.14 µg/mL	8.99 ± 0.65 µg/mL	0.61 ± 0.03 µg/mL	2.92 ± 0.15 µg/mL	4.43 ± 1.84 h
O=c1cc(-c2ccc(O)cc2)oc2cc(O)cc(O)c12 [Apigenin, apigenin]	5030 ± 1720 ng·h/mL	2910 ± 740 ng·h/mL	420 ± 110 ng/mL	~0.51 h	~8.82 h	stable	7.87 ± 0.50 µg/mL	0.48 ± 0.02 µg/mL	2.60 ± 0.14 µg/mL	8.31 ± 0.72 µg/mL	0.50 ± 0.04 µg/mL	2.64 ± 0.16 µg/mL	8.27 ± 0.62 µg/mL	0.46 ± 0.04 µg/mL	2.61 ± 0.13 µg/mL	8.82 ± 4.15 h
